What is called IC50 is the midpoint of a concentration-inhibition curve. By AC50 is commonly meant the concentration at which the activity in the assay is half-maximal. Broadly, the CC50 is the concentration giving 50% cytotoxicity. As a reminder, the EC50 is the concentration at which the effect is half-maximal.

Active and inactive are the calls of the source.

The source of these data is ChEMBL document CHEMBL1201862, “PubChem BioAssay data set” (2004).

The target in experiment [1] is T1, Alkaline phosphatase, tissue-nonspecific isozyme (Homo sapiens, UniProt P05186).
T1 sequence (P05186 whole entry): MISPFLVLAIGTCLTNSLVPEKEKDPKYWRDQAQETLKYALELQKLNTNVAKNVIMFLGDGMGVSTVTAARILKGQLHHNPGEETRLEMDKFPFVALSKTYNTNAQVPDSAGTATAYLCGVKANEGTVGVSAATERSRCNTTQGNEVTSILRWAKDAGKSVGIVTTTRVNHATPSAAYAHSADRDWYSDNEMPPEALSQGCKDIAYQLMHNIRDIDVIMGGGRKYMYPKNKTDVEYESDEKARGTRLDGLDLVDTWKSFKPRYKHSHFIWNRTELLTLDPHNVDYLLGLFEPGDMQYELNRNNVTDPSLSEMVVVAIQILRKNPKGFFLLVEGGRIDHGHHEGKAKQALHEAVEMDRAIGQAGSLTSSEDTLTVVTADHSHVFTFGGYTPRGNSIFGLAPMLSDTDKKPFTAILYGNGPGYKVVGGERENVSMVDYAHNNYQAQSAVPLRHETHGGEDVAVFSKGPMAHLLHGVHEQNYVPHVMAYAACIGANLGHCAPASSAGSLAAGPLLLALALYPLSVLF
Description: human TNAP enzyme inhibitors, SAR follow-up, biochemical, luminescent, dose response (AID 1056).

In experiment [2] the target is Glyceraldehyde-3-phosphate dehydrogenase (Homo sapiens, UniProt P04406).
In the next experiment the test system is HEK293. Description: cells. To be noted: Homo sapiens.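 Also: cells exposed to compound for 14 hours overnight before viability readout.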
Experiment [3] can be described thus: HepG2 cell cytotoxicity, dose response, cytotoxicity control for Shn3 inhibitor project, CellTiter-Glo, cherry-picked (AID 624134). Format: functional, cell-based. In general terms: ATP-based viability assays read luminescence as a measure of living cells.
The next experiment deals with Tumor necrosis factor (Homo sapiens, UniProt P01375). Nature of the experiment: TNFa-triggered NF-kB activation inhibitors, SAR follow-up, cell-based, revised (AID 2337). Format: functional.
Experiment [4] can be described thus: cytotoxicity in MIN6 insulinoma cells, dose response, cytotoxicity control, cell-based, mouse insulinoma (AID 2122).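 Also: confirmatory high-throughput counterscreen run to flag cytotoxic compounds; mouse MIN-6 beta cells carrying an insulin promoter eGFP reporter.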 The format is functional.
The nature of experiment [5]: insulin promoter down-regulators in MIN6 cells, imaging, high-content screening, mouse beta cells (AID 1628). The format is functional.
Experiment [6] can be described thus: Shn3 3'UTR reporter inhibitors, dose response, cell-based, Clone20 osteoblasts, firefly luciferase, cherry-picked (AID 624132).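 Also: firefly luciferase luminescence from reporter carrying the Shn3 3'UTR in osteoblasts.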 The format is functional.
In experiment [7] the target is Nucleotide-binding oligomerization domain-containing protein 1 (Homo sapiens, UniProt Q9Y239). Nature of the experiment: NOD1 signaling inhibitors, SAR follow-up, revised (AID 2333). The format is functional.
The nature of experiment [8]: control 3'UTR Renilla luciferase suppression, dose response, counter-screen for Shn3 inhibitor project, cell-based, Clone20-Shn3RL, cherry-picked (AID 624133). The format is functional. (The purpose of a counterscreen is to sort out artefacts and off-target activity.)
Experiment [9] in a line: cytotoxicity in HEK-293T cells, dose response, cytotoxicity control for TCR NF-kB inhibitor project, luminescence, T-cell screen hits (AID 489026).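 Also: cells exposed to compound about 14 hours before the viability readout.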 The format is functional, cell-based.
A short description of experiment [10]: Intein inhibitors as potential Tuberculosis drugs, a cytotoxicity screen. [Related pubchem assays (depositor defined):AID2221, AID2223, AID434968, AID435010, AID449749, AID449750, AID489010]. Format: functional.
The nature of experiment [11]: non-specific cell cytotoxicity, dose response, cytotoxicity control for PAX8 inhibitor project, plate reader, dry powder samples (AID 743021). The format is functional, cell-based.
In a further experiment the target is T2, Protein RecA (Mycobacterium tuberculosis, UniProt P9WHJ3).
T2 sequence (P9WHJ3 whole entry): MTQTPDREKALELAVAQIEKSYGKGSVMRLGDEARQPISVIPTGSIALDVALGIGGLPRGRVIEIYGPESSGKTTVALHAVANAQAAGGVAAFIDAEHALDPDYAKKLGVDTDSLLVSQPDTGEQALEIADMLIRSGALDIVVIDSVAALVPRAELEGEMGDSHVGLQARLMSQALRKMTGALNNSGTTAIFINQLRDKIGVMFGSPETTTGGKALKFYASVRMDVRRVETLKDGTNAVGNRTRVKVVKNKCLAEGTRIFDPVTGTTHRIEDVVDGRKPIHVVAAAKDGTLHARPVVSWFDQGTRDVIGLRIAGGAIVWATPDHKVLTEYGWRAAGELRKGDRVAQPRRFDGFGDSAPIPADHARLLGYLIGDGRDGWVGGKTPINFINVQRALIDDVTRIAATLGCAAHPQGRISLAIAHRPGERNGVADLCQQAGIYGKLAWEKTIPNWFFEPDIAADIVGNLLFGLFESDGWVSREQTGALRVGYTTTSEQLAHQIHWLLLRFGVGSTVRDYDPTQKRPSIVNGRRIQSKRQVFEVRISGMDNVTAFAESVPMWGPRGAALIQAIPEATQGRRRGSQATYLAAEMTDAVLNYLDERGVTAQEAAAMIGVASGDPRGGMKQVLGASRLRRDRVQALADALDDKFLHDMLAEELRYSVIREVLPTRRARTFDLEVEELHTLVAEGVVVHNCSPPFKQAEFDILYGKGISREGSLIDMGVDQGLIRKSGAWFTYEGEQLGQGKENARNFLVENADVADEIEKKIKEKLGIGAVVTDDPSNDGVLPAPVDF
Description: Fluorescence Cell-Free Homogeneous Dose Retest to Identify Inhibitors of RecA-Intein Splicing Activity. [Related pubchem assays (depositor defined):AID2097, AID2223, AID489010, AID492950]. The format is functional.

The target of experiment [12] is T3, Heat shock factor protein 1 (Mus musculus, UniProt P38532).
T3 sequence (P38532 whole entry): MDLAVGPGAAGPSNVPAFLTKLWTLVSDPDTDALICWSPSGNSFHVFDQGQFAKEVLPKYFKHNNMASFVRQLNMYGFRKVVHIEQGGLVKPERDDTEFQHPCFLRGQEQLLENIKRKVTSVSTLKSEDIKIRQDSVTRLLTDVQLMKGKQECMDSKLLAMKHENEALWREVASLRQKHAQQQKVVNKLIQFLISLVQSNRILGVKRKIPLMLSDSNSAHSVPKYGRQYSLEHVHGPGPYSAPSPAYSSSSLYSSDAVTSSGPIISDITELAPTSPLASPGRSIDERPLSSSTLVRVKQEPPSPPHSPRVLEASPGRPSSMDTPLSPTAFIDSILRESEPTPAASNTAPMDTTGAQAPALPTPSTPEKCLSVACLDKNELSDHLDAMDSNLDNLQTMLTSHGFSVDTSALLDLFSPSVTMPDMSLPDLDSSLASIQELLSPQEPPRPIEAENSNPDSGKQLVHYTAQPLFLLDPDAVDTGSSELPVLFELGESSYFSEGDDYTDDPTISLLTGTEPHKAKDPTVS
Description: HSF1 potentiators in luciferase reporter cells, confirmation, cell-based, NIH3T3, luminescence, dose retest (AID 435004).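 Also: stress induced by proteasome inhibitor MG132 added 30 min after compound; luciferase reporter driven by HSF1 response element in NIH3T3 cells; actives raise luminescence as potentiators of the MG132 stress response.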 Format: functional. A general note: Reporter assays use an easily measured gene product as a stand-in for the process of interest.

In experiment [13] the target is T4, Replicative DNA helicase DnaB (Mycobacterium tuberculosis, UniProt P9WMR3).
T4 sequence (P9WMR3 whole entry): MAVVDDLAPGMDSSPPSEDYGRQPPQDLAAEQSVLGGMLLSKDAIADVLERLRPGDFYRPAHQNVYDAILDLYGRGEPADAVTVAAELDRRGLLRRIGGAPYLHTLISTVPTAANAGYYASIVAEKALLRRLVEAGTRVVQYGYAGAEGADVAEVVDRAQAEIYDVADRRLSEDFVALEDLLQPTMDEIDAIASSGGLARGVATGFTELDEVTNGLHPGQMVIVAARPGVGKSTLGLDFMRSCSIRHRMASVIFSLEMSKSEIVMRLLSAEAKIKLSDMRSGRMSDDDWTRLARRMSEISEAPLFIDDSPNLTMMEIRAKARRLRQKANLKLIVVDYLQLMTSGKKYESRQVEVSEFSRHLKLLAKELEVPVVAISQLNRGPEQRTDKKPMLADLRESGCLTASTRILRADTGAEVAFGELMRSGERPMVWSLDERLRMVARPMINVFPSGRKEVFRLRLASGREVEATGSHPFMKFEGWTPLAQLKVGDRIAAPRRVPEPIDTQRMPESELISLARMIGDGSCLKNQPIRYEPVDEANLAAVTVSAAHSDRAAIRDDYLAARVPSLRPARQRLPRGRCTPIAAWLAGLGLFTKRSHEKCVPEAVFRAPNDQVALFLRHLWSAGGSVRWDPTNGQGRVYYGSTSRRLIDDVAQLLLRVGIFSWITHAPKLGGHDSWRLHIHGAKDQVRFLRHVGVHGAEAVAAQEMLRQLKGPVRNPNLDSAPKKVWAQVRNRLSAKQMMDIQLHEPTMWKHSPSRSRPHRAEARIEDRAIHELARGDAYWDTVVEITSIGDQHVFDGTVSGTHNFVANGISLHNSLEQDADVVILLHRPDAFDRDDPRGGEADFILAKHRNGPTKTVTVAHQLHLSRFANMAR
Nature of the experiment: DnaB intein splicing inhibitors, dose response, biochemical, cell-free fluorescence (AID 449749). Format: functional.

A further experiment addresses Paired box protein Pax-8 (Homo sapiens, UniProt Q06710). Nature of the experiment: inhibitors of PAX8-driven TPO luciferase reporter, dose response, RMG-I cells, cherry-pick (AID 687027).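 Also: luciferase reporter driven by Pax8 target thyroperoxidase promoter measured by SteadyGlo luminescence.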 The format is functional, cell-based.
In the next experiment the test system is Vero. Nature of the experiment: host cell cytotoxicity of antiviral hits, dose response, cytotoxicity control for West Nile virus antiviral project, secondary assay (AID 1650). Format: functional. To be noted: Chlorocebus sabaeus.
Experiment [14] deals with Alkaline phosphatase, placental type (Homo sapiens, UniProt P05187). Nature of the experiment: PLAP enzyme inhibitors, confirmation, biochemical, luminescence (AID 1512). The format is functional.
The nature of experiment [15]: cytotoxicity toward DRD oncogenic fibroblasts, dose response, cell-based, non-viral oncogenic, luminescence (AID 1934). To be noted: Homo sapiens. Format: functional.
Experiment [16] deals with BJ. Nature of the experiment: cytotoxicity toward BJ-TERT-LT-ST fibroblasts, dose response, cell-based, RAS-independent, luminescence (AID 1935).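 Also: BJ fibroblasts immortalized with TERT plus LT and ST oncogenes.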 Format: functional. To be noted: Homo sapiens.
Experiment [17] deals with BJ. Description: cytotoxicity toward BJ-TERT fibroblasts, dose response, cell-based, RAS-independent, luminescence (AID 1933). The format is functional. To be noted: Homo sapiens.
Another experiment addresses T5, Hexokinase HKDC1 (Homo sapiens, UniProt Q2TB90).
T5 sequence (Q2TB90 whole entry): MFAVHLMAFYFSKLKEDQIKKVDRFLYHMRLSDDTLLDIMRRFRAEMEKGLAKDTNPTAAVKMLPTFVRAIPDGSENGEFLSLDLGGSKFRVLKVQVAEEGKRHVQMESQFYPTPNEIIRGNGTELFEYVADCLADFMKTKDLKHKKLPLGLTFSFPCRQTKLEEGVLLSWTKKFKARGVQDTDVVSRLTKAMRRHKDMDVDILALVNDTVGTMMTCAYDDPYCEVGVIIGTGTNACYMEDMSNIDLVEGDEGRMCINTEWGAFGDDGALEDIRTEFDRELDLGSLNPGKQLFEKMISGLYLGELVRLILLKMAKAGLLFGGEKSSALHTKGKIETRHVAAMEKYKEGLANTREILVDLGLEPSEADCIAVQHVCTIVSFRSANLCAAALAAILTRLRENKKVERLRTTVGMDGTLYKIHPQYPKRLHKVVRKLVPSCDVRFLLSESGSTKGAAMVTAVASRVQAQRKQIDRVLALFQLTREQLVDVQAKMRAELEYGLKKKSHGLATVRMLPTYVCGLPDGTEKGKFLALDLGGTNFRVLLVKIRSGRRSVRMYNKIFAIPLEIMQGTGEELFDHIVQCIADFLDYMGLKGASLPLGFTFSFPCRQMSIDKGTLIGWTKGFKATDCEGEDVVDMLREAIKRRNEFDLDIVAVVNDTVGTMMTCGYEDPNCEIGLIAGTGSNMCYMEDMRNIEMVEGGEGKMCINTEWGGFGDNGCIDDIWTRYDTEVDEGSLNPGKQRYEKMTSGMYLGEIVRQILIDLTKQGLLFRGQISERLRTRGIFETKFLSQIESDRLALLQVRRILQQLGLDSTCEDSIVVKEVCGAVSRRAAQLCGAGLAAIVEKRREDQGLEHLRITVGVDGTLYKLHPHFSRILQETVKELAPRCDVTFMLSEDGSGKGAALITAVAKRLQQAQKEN
Description: HKDC1 hexokinase inhibitors, dose response, biochemical, W721R variant (AID 504729). The format is functional.

For experiment [18], the system named is BJ. Nature of the experiment: cells. The format is functional, cell-based. To be noted: Homo sapiens.

Glyceraldehyde-3-phosphate dehydrogenase, sequence (P04406 whole entry): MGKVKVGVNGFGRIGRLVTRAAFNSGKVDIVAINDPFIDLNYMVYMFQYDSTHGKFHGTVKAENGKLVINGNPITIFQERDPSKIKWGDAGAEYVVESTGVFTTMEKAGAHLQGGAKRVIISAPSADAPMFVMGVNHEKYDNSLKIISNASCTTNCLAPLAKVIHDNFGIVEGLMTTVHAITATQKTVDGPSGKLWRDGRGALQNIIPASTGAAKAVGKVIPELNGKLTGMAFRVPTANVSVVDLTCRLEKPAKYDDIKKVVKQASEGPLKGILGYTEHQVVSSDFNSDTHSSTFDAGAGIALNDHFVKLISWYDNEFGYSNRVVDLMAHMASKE
Tumor necrosis factor, sequence (P01375 whole entry): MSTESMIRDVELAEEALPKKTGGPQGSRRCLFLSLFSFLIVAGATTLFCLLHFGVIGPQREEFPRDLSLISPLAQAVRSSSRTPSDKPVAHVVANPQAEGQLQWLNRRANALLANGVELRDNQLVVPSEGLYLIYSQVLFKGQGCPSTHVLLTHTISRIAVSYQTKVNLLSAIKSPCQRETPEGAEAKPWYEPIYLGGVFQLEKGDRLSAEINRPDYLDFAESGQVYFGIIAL
Paired box protein Pax-8, sequence (Q06710 whole entry): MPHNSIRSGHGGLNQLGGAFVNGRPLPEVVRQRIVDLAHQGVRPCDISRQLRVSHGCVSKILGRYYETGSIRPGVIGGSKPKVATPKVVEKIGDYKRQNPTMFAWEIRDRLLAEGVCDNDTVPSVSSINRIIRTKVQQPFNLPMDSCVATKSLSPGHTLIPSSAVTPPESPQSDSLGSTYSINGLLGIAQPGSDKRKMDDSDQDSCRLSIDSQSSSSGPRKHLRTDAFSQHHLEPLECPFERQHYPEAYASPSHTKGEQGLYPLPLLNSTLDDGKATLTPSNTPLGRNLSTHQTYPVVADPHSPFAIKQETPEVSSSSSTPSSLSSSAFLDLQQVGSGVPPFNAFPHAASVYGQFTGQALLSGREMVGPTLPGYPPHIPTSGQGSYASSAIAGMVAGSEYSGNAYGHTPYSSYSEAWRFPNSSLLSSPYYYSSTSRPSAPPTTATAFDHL
Nucleotide-binding oligomerization domain-containing protein 1, sequence (Q9Y239 whole entry, the tested form may be a part): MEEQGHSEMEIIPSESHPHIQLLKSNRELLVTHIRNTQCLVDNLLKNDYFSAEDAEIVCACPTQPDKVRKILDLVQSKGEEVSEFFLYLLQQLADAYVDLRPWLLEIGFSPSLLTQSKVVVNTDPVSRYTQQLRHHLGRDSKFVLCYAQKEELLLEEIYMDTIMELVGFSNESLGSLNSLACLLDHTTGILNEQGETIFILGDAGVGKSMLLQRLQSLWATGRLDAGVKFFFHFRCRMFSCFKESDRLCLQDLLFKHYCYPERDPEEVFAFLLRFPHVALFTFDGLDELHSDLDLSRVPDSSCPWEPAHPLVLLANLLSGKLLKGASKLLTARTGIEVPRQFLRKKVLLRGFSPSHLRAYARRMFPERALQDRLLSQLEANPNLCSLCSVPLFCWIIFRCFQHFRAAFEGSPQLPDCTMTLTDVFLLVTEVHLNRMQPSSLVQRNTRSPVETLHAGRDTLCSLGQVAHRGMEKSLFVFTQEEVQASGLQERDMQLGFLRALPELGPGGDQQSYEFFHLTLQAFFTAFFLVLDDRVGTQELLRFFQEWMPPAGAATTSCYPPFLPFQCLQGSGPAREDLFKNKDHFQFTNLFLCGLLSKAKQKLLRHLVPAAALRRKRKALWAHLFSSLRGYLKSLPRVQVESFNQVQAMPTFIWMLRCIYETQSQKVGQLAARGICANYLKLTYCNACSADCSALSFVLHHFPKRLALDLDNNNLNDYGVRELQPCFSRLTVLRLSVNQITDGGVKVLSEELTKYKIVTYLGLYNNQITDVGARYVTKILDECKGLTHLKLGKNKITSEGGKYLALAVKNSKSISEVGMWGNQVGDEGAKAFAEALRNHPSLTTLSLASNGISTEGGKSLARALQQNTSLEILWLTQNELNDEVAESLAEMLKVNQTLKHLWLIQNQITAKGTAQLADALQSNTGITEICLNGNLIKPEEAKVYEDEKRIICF
Alkaline phosphatase, placental type, sequence (P05187 whole entry): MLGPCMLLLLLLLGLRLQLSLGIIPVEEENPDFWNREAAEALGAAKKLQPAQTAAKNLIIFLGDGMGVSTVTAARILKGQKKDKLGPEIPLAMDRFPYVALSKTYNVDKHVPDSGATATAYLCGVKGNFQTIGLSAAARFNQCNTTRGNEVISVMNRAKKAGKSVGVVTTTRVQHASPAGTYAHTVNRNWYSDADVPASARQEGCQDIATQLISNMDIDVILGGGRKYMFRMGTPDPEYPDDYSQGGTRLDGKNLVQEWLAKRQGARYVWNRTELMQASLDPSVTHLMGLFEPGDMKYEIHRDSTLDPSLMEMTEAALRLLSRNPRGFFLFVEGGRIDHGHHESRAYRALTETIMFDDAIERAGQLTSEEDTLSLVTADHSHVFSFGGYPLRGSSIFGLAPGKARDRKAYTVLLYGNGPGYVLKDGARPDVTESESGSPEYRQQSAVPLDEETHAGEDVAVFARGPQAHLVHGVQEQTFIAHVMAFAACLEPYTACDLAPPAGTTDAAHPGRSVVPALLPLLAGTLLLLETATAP

On to `O=S(=O)(Nc1ccc2ccccc2c1)c1ccccc1`, for which the IC50 in [1] was > 100 µM (inactive); in experiment [2] it was > 100 µM (not active).

In the case of `O=C(Nc1ccc(S(=O)(=O)N2CCCC2)cc1)c1ccc(CN2CCc3ccccc3C2)cc1`, the IC50 with HEK293 is 6.77 µM (active); on Tumor necrosis factor, 0.639 µM (active); in experiment [4], 0.576 µM (active); in experiment [5] it was 0.707 µM (active); in experiment [7] it was 0.418 µM (active); in experiment [9] it was > 80 µM (inactive). Moreover, the AC50 in [3] is 0.292 µM (active); in experiment [6], 0.575 µM (active); in experiment [8], 0.406 µM (active).

On to `Cc1ccc(N(NC(=O)C(O)(c2ccccc2)c2ccccc2)C(=O)CCl)cc1`, for which the CC50 is 7.46 µM (active) in experiment [10] and 6.32 µM (active) with Vero. The results for the AC50 (in [11]; in experiment [13]; on Paired box protein Pax-8) were 11.8 µM (active), 4.45 µM (active) and 8.18 µM (active), respectively. Further, the EC50 on Protein RecA was 0.529 µM (active); in experiment [12], > 260 µM (inconclusive).

Regarding `Cc1cc(C)nc(SCC(=O)c2cccc(O)c2)n1`, the IC50 in experiment [1] and in experiment [14] was > 100 µM (inactive) each time.

Take `CC(=O)n1cc(N(C(=O)CCl)c2ccc([N+](=O)[O-])cc2)c2ccccc21`: the EC50 was 2.63 µM (inconclusive) in experiment [15]; 4.78 µM (inconclusive) with BJ [16]; 2.65 µM (inconclusive) in the experiment with BJ [17]; 0.358 µM (active) at Protein RecA; 2.59 µM (inconclusive) in the experiment on BJ [18]. For the same compound, the CC50 in experiment [10] was 12.3 µM (active). The AC50 in [13] was 1.59 µM (active). Besides, the IC50 on Hexokinase HKDC1 was 27 µM (inactive).
